The species entered for one data set is Bos taurus. Briefly: Inhibition of [3H]colchicine binding to bovine brain tubulin at 5 uM after 10 mins by scintillation counting method relative to control.
Data set [1] can be described thus: Inhibition of bovine brain tubulin polymerization preincubated for 15 mins followed by GTP addition measured after 20 mins by Spectrophotometric method. Details: species or system Bos taurus.
The nature of data set [2]: Drug metabolism in pH 7.4 PBS assessed as compound hydrolysis after 24 hrs by HPLC method. Conditions: read-out: Drug metabolism. It is filed as physicochemical.
Data set [3] addresses T1, NADPH--cytochrome P450 reductase (P450 oxidoreductase) (Rattus norvegicus, UniProt P00388).
T1 sequence (P00388 whole entry): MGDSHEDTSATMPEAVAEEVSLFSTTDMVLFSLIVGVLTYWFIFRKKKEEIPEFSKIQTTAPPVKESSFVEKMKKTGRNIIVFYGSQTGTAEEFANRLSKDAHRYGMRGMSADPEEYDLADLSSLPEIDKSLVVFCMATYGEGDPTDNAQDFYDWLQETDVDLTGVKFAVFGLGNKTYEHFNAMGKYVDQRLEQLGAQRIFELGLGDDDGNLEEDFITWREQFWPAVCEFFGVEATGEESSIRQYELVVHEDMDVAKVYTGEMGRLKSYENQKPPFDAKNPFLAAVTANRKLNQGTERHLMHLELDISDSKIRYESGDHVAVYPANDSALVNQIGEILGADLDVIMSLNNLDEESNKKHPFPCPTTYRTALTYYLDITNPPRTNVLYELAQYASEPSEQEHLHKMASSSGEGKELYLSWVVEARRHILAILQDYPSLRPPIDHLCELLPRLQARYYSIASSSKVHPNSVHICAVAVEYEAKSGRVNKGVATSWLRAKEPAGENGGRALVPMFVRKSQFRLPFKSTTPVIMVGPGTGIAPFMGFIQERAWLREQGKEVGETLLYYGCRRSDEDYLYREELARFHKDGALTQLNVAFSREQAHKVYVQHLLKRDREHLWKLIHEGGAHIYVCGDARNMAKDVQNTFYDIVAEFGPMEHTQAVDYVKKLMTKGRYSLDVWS
Briefly: Drug metabolism in pH 7.4 PBS assessed as rat P450 oxidoreductase-mediated compound hydrolysis preincubated for 20 mins followed by protocatechuate 3,4-dioxygenase addition to create anoxic condition and subsequent addition of P450 oxidoreductase in presence of NADPH after 24 hrs by HPLC method. It is filed as ADME. Conditions: rat P450 oxidoreductase with NADPH in PBS, read-out: Drug metabolism.

From ChEMBL document CHEMBL4041538, “Bioreductively activatable prodrug conjugates of phenstatin designed to target tumor hypoxia” (Bioorg Med Chem Lett, 2017) come the findings set out here.

In general, inhibition refers to the relative decrease from the control value, in per cent. A lower inhibition goes with a weak effect. In general, IC50 refers to the concentration at which inhibition is half-maximal.

The structures appear in SMILES notation.

`COc1ccc(C(=O)c2cc(OC)c(OC)c(OC)c2)cc1OCc1ccc([N+](=O)[O-])o1` gave an inhibition in the data set filed under Bos taurus of 17%. In addition, the IC50 in data set [1] worked out at 15 µM.
As for `COc1ccc(C(=O)c2cc(OC)c(OC)c(OC)c2)cc1OC(C)(C)c1ccc([N+](=O)[O-])o1`, the degraded at 24 h in data set [2] was found to be 0%. In addition, the inhibition in the data set listed under Bos taurus was 13%. Also, in data set [3], the metabolised at 24 h was 100%. The compound also returned an IC50 in data set [1] of more than 20 µM.
`COc1ccc(C(=O)c2cc(OC)c(OC)c(OC)c2)cc1O` [PHENSTATIN] had an inhibition in the data set filed under Bos taurus of 85%. Further, the IC50 in data set [1] came out at 1 µM.
The matching figures for `COc1ccc(C(=O)c2cc(OC)c(OC)c(OC)c2)cc1OCc1cnc([N+](=O)[O-])n1C`: 7.1% and more than 20 µM.
Regarding `COc1ccc(C(=O)c2cc(OC)c(OC)c(OC)c2)cc1OC(C)(C)c1ccc([N+](=O)[O-])cc1`, in data set [2], the degraded at 24 h worked out at 0%. For the same compound, the inhibition in the data set listed under Bos taurus is 8.8%. For the same compound, in data set [3], the metabolised at 24 h was found to be 0%. Besides, in data set [1], the half-maximal inhibitory concentration (IC50) is more than 20 µM.
Take `COc1ccc(C(=O)c2cc(OC)c(OC)c(OC)c2)cc1OCc1ccc([N+](=O)[O-])s1`: the inhibition in the data set listed under Bos taurus is 19%. Moreover, the IC50 in data set [1] came to 16 µM.
The compound `COc1ccc(/C=C\c2cc(OC)c(OC)c(OC)c2)cc1O` [COMBRETASTATIN A4] came in with an IC50 in data set [1] of 0.73 µM.
In the data set filed under Bos taurus, `COc1ccc(C(=O)c2cc(OC)c(OC)c(OC)c2)cc1OC(C)c1ccc([N+](=O)[O-])o1` (stereo unspecified) returned an inhibition of 16%. For the same compound, the IC50 in data set [1] turned out to be 12 µM.
Consider `COc1ccc(C(=O)c2cc(OC)c(OC)c(OC)c2)cc1OC(C)(C)c1ccc([N+](=O)[O-])s1`, for which the degraded at 24 h in data set [2] came to 0%. The same compound came in with an inhibition in the data set listed under Bos taurus of 16%. Further, in data set [3], the metabolised at 24 h turned out to be 100%. In data set [1], this compound displayed an IC50 of 9 µM.
In the case of `COc1ccc(C(=O)c2cc(OC)c(OC)c(OC)c2)cc1OC(C)c1cnc([N+](=O)[O-])n1C` (stereo unspecified), the inhibition in the data set listed under Bos taurus was 11%. Moreover, in data set [1], the half-inhibitory concentration (IC50) was more than 20 µM.
In the same order, the values of `COc1ccc(C(=O)c2cc(OC)c(OC)c(OC)c2)cc1OCc1ccc([N+](=O)[O-])cc1` are 11% and more than 20 µM.
In the same order, the values of `COc1ccc(C(=O)c2cc(OC)c(OC)c(OC)c2)cc1OC(C)c1ccc([N+](=O)[O-])s1` (stereo unspecified) are 15% and more than 20 µM.
In the same order, the values of `COc1ccc(C(=O)c2cc(OC)c(OC)c(OC)c2)cc1OC(C)c1ccc([N+](=O)[O-])cc1` (stereo unspecified) are 5.8% and more than 20 µM.
